Experimental data taken from patent US4487937A, “2-(2-Substitutedamino-4-thiazolyl)-2-(1-methoxy-isopropoxyimino)-acetic acids” (Roussel Uclaf, priority 1977, dated 1984).
Like-named read-outs stand apart in the source and are kept apart here.

Assays:
Assay in all cases: In vitro MIC, dilution of a liquid medium
Assay type in all cases: cell-based
[1] = test system: Staphylococcus aureus UC 1 128 Penicillin-resistant; conditions: 37° C., read-out: minimum inhibiting concentration (MIC)
Experimental: (§1) The method used was a dilution of a liquid medium where a series of tubes received the same quantity of a sterile nutritive media and increasing doses of the test compounds were placed therein. Then each tube was seeded with a bacterial strain and was incubated for 24 or 48 hours at 37° C. in an oven. The increasing inhibition was determined by transillumination to determine the minimum inhibiting concentration (MIC in μg/ml) and the results are reported in the following Tables.

[2] = test system: Salmonella typhimurium 420; conditions: Salmonella enterica, read-out: minimum inhibiting concentration (MIC)
Experimental: as §1

[3] = test system: Streptococcus faecalis 5 432; conditions: Enterococcus faecalis, 5432, 37° C., read-out: minimum inhibiting concentration (MIC)
Experimental: as §1

[4] = test system: Bacillus subtilis ATCC 6 633; conditions: read-out: minimum inhibiting concentration (MIC)
Experimental: as §1

[5] = test system: Klebsiella pneumoniae Exp. 52 145; conditions: 37° C., read-out: minimum inhibiting concentration (MIC)
Experimental: as §1

[6] = test system: Escherichia Coli Resistant Tetracycline ATCC 11 303; conditions: 37° C., read-out: minimum inhibiting concentration (MIC)
Experimental: as §1

[7] = test system: Staphylococcus aureus exp. n° 54 146; conditions: 37° C., read-out: minimum inhibiting concentration (MIC)
Experimental: as §1

Providencia Du 48 = conditions: 37° C., read-out: minimum inhibiting concentration (MIC)
Experimental: as §1

[8] = test system: Escherichia Coli Exp. TO26 B6; conditions: 37° C., read-out: minimum inhibiting concentration (MIC)
Experimental: as §1

[9] = test system: Staphylococcus aureus ATCC 6 538 Penicillin-Sensitive; conditions: 37° C., read-out: minimum inhibiting concentration (MIC)
Experimental: as §1

[10] = test system: Streptococcus pyogenes A 561; conditions: read-out: minimum inhibiting concentration (MIC)
Experimental: as §1

[11] = test system: Serratia Resistant Gentamicine 2 532; conditions: 37° C., read-out: minimum inhibiting concentration (MIC)
Experimental: as §1

[12] = test system: Proteus mirabilis (indol -) A 235; conditions: read-out: minimum inhibiting concentration (MIC)
Experimental: as §1

[13] = test system: Streptococcus faecalis 99 F 74; conditions: Enterococcus faecalis, 99F74, 37° C., read-out: minimum inhibiting concentration (MIC)
Experimental: as §1

Enterobacter cloacae 681 = conditions: 37° C., read-out: minimum inhibiting concentration (MIC)
Experimental: as §1

[14] = test system: Klebsiella pneumoniae 2 536 Resistant Gentamicine; conditions: read-out: minimum inhibiting concentration (MIC)
Experimental: as §1

[15] = test system: Escherichia Coli Sensitive Tetracycline ATCC 9 637; conditions: read-out: minimum inhibiting concentration (MIC)
Experimental: as §1

[16] = test system: Escherichia Coli Resistant Gentamicine, Tobramycine R 55 123 D; conditions: read-out: minimum inhibiting concentration (MIC)
Experimental: as §1

[17] = test system: Proteus vulgaris (indol +) A 232; conditions: 37° C., read-out: minimum inhibiting concentration (MIC)
Experimental: as §1

Compound: CC(=O)OCC1=C(C(=O)O)N2C(=O)C(NC(=O)/C(=N\OCC#N)c3csc(N)n3)C2SC1 (stereo not shown) [Example 8, sodium 7-[2-(2-amino-4-thiazolyl)-2-cyano-methoxyimino-acetamido]-3-acetoxymethyl-ceph-3-eme-4-carboxylate]
- MIC ([1]; UC1, 24 H): 2 µg/mL
- MIC ([1]; UC1, 48 H): 3 µg/mL
- MIC ([2]; 24 h): 0.5 µg/mL
- MIC ([2]; 48 h): 0.5 µg/mL
- MIC ([3]; 24 H): 3 µg/mL
- MIC ([3]; 48 H): 20 µg/mL
- MIC ([4]; ATCC6, 48 H, 37° C.): 1 µg/mL
- MIC ([4]; ATCC6, 24 h): 0.5 µg/mL
- MIC ([5]; EXP.52145, 24 H): 0.05 µg/mL
- MIC ([5]; EXP.52145, 48 H): 0.05 µg/mL
- MIC ([6]; ATCC11, 24 H): 0.05 µg/mL
- MIC ([6]; ATCC11, 48 H): 0.05 µg/mL
- MIC ([7]; 24 H): 2 µg/mL
- MIC ([7]; 48 H): 3 µg/mL
- MIC (Providencia Du 48; DU48, 24 H): 5 µg/mL
- MIC (Providencia Du 48; DU48, 48 H): 5 µg/mL
- MIC ([8]; 24 H): 0.2 µg/mL
- MIC ([8]; 48 H): 0.2 µg/mL
- MIC ([9]; ATCC6, 24 H): 2 µg/mL
- MIC ([9]; ATCC6, 48 H): 2 µg/mL
- MIC ([10]; A561, 24 H, 37° C.): 0.05 µg/mL
- MIC ([10]; A561, 48 H, 37° C.): 0.05 µg/mL
- MIC ([11]; 24 H): 2 µg/mL
- MIC ([11]; 48 H): 2 µg/mL
- MIC ([12]; 24 H, 37° C.): 0.05 µg/mL
- MIC ([12]; 48 H, 37° C.): 0.05 µg/mL
- MIC ([13]; 24 H): 10 µg/mL
- MIC ([13]; 48 H): > 40 µg/mL
- MIC (Enterobacter cloacae 681; 24 H): 3 µg/mL
- MIC (Enterobacter cloacae 681; 48 H): 5 µg/mL
- MIC ([14]; 24 H, 37° C.): 1 µg/mL
- MIC ([14]; 48 H, 37° C.): 1 µg/mL
- MIC ([15]; ATCC9, 24 h): 0.5 µg/mL
- MIC ([15]; ATCC9, 48 h): 0.5 µg/mL
- MIC ([16]; 24 h): 0.2 µg/mL
- MIC ([16]; 48 h): 0.2 µg/mL

Compound: CC(=O)OCC1=C(C(=O)O)N2C(=O)C(NC(=O)/C(=N\OCC(N)=O)c3csc(N)n3)[C@H]2SC1 (stereo partly shown) [Example 11, sodium 7-[2-(2-amino-4-thiazolyl)-2-(aminocarbonylmethoxyimino)-acetamido]-3-acetoxymethyl-ceph-3-eme-4-carboxylate]
- MIC ([1]; UC1, 24 H): 5 µg/mL
- MIC ([1]; UC1, 48 H): 5 µg/mL
- MIC ([2]; 24 h): 0.2 µg/mL
- MIC ([2]; 48 h): 0.2 µg/mL
- MIC ([3]; 24 H): 5 µg/mL
- MIC ([3]; 48 H): 20 µg/mL
- MIC ([4]; ATCC6, 48 H, 37° C.): 1 µg/mL
- MIC ([4]; ATCC6, 24 h): 0.5 µg/mL
- MIC ([5]; EXP.52145, 24 H): 0.05 µg/mL
- MIC ([5]; EXP.52145, 48 H): 0.05 µg/mL
- MIC ([6]; ATCC11, 24 H): 0.05 µg/mL
- MIC ([6]; ATCC11, 48 H): 0.05 µg/mL
- MIC ([7]; 24 H): 3 µg/mL
- MIC ([7]; 48 H): 5 µg/mL
- MIC (Providencia Du 48; DU48, 24 H): 5 µg/mL
- MIC (Providencia Du 48; DU48, 48 H): 5 µg/mL
- MIC ([8]; 24 H): 0.1 µg/mL
- MIC ([8]; 48 H): 0.1 µg/mL
- MIC ([9]; ATCC6, 24 H): 2 µg/mL
- MIC ([9]; ATCC6, 48 H): 3 µg/mL
- MIC ([10]; A561, 24 h): 0.1 µg/mL
- MIC ([10]; A561, 48 h): 0.1 µg/mL
- MIC ([11]; 24 H): 2 µg/mL
- MIC ([11]; 48 H): 2 µg/mL
- MIC ([12]; 24 h): 0.1 µg/mL
- MIC ([12]; 48 h): 0.1 µg/mL
- MIC ([17]; 24 H): 5 µg/mL
- MIC ([17]; 48 H): 40 µg/mL
- MIC ([13]; 24 H): 20 µg/mL
- MIC ([13]; 48 H): > 40 µg/mL
- MIC (Enterobacter cloacae 681; 24 H): 2 µg/mL
- MIC (Enterobacter cloacae 681; 48 H): 10 µg/mL
- MIC ([14]; 24 h): 0.5 µg/mL
- MIC ([14]; 48 h): 0.5 µg/mL
- MIC ([15]; ATCC9, 24 h): 0.2 µg/mL
- MIC ([15]; ATCC9, 48 h): 0.5 µg/mL
- MIC ([16]; 24 h): 0.1 µg/mL
- MIC ([16]; 48 h): 0.1 µg/mL

Compound: CC(=O)OCC1=C(C(=O)O)N2C(=O)C(NC(=O)/C(=N\OC(C)(C)C(=O)O)c3csc(N)n3)[C@H]2SC1 (stereo partly shown) [Example 14, disodium 7-[2-(2-amino-4-thiazolyl)-2-(1-carboxy-1-methylethoxyimino)-acetamido]-3-acetoxymethyl-ceph-3-eme-4-carboxylate]
- MIC ([1]; UC1, 24 H): 20 µg/mL
- MIC ([1]; UC1, 48 H): 40 µg/mL
- MIC ([2]; 24 H, 37° C.): 1 µg/mL
- MIC ([2]; 48 H, 37° C.): 1 µg/mL
- MIC ([3]; 24 H): > 40 µg/mL
- MIC ([3]; 48 H): > 40 µg/mL
- MIC ([4]; ATCC6, 24 H, 37° C.): 10 µg/mL
- MIC ([4]; ATCC6, 48 H, 37° C.): > 40 µg/mL
- MIC ([5]; EXP.52145, 24 H): 1 µg/mL
- MIC ([5]; EXP.52145, 48 H): 1 µg/mL
- MIC ([6]; ATCC11, 24 H): 0.2 µg/mL
- MIC ([6]; ATCC11, 48 H): 0.2 µg/mL
- MIC ([7]; 24 H): 20 µg/mL
- MIC ([7]; 48 H): > 40 µg/mL
- MIC (Providencia Du 48; DU48, 24 H): 2 µg/mL
- MIC (Providencia Du 48; DU48, 48 H): 3 µg/mL
- MIC ([8]; 24 H): 0.5 µg/mL
- MIC ([8]; 48 H): 0.5 µg/mL
- MIC ([9]; ATCC6, 24 H): 20 µg/mL
- MIC ([9]; ATCC6, 48 H): 20 µg/mL
- MIC ([10]; A561, 24 H, 37° C.): 1 µg/mL
- MIC ([10]; A561, 48 H, 37° C.): 1 µg/mL
- MIC ([11]; 24 H): 1 µg/mL
- MIC ([11]; 48 H): 1 µg/mL
- MIC ([12]; 24 H, 37° C.): 0.05 µg/mL
- MIC ([12]; 48 H, 37° C.): 0.05 µg/mL
- MIC ([17]; 24 H): 0.1 µg/mL
- MIC ([17]; 48 H): 3 µg/mL
- MIC ([13]; 24 H): > 40 µg/mL
- MIC ([13]; 48 H): > 40 µg/mL
- MIC (Enterobacter cloacae 681; 24 H): 40 µg/mL
- MIC (Enterobacter cloacae 681; 48 H): > 40 µg/mL
- MIC ([14]; 24 H, 37° C.): 1 µg/mL
- MIC ([14]; 48 H, 37° C.): 1 µg/mL
- MIC ([15]; ATCC9, 24 h): 0.5 µg/mL
- MIC ([15]; ATCC9, 48 h): 0.5 µg/mL
- MIC ([16]; 24 h): 0.5 µg/mL
- MIC ([16]; 48 h): 0.5 µg/mL
